Assay results: patent publication US5478808A, “2-amino-6,7-dihydroxy-4-thiaheptanoic acid derivatives, production and use thereof” (Takeda Chemical Industries, Ltd., priority 1992, dated 1995)

How the values were obtained:
[1] = tested on: bone marrow cells of BALB/c mice; assay: Enhancing proliferation of bone marrow cells of mice (MTT reduction method); format: cell-based, mouse; settings: concentration giving 1.3 or more times the proliferation of the group without test compound; 3 days incubation
Procedure: To an RPMI 1640 culture medium [Bio-Wittaker Inc. (hereinafter abbreviated as BW), USA] containing 2×10^6 /ml of bone marrow cells of BALB/c mice, 2 mM of L-glutamine, 20 ug/ml of gentamicin (Flow Laboratories, Inc., Scotland), 10% fetal calf serum (BW, USA) was added a test compound in an adequate concentration, which was incubated at 37° C. for 3 days in 5% carbon dioxide in air followed by determination of proliferation of the bone marrow cells by the MTT reduction method [Tada et al., Journal of Immunological Methods, Vol. 93, p.157, 1986].

mouse = assay: Toxicity test, intraperitoneal; format: in vivo; settings: 100 mg/kg
[2] = tested on: peripheral blood leukocytes of CDF1/Crj mice; assay: Enhancing the number of leukocytes in cyclophosphamide-treated mice; format: in vivo, mouse; settings: cyclophosphamide 150 mg/kg p.o., then compound 0.063 mg/kg/day s.c. for 5 days; mice without cyclophosphamide = 100%
Procedure: Six week old female CDF1/Crj mice (5 animals/group) were subjected to the experiment. […] From the next day, each animal was administered subcutaneously with the compound suspended in 5% glucose at the following dosages for five days once a day. On the next day after completion of the administration, about 100 μl of peripheral blood was collected from orbital vein using an EDTA-treated glass capillary. Then, the number of lekocytes was counted using a automatic cell analyzer (Sysmex K-2000, Toa Medical Electronics, Japan)

Row | Substance | Minimal Effective Concentration (MEC) [1] [ng/mL] | Mortality (mouse) | Number of leukocytes [2] [%]
1 | (2R,6R)-2-amino-6,7-bis(PamO)-4-THT-NH(CH2)7 CO-Glu-OH hydrochloride [Compound 36] | < 0.156 | – | –
2 | (2S,6R)-2-amino-6,7-bis(PamO)-4-THT-Gly-Gly-Gly-Glu-Thr-Thr-OH [Compound 3] | – | No mouse administered intraperitoneally with Compound 3 at a dose of 100 mg/kg was found dead | –
3 | (2R,6R)-2-amino-6,7-bis(PamO)-4-THT-Gly-Gly-Gly-Glu-Thr-Thr-OH [Compound 2] | < 0.156 | – | 102
